Results published in patent US20250074970A1, “METHOD OF PURIFYING IMMUNOGLOBULIN G AND USES THEREOF” (CSL Behring AG, priority 2021, published 2025).

Tested on: Vesicular stomatitis virus (VSV)
Format: cell-based
Conditions: 30 mM final concentration of OG at 5° C., VSV spiked CRP

CCCCCCCCO[C@@H]1O[C@H](CO)[C@@H](O)[C@H](O)[C@H]1O [OG, N-Octyl-β-D-Glucopyranoside]
log 10 reduction factor (LRF): ≥ 5.3
